Article PMC8230073, “The Role of Anthocyanins, Deoxyanthocyanins and Pyranoanthocyanins on the Modulation of Tyrosinase Activity: An In Vitro and In Silico Approach” (International Journal of Molecular Sciences, 2021)
Like-named read-outs stand apart in the source and are kept apart here. One block for each compound: values may come before it.

Tests used:
[1] = pH 7.4, cited from earlier work; for fraction in quinoidal base form: 7-A^− and 8-A, ref [20],[22]
[2] = molecular target: T1, mushroom tyrosinase (Agaricus bisporus, UniProt C7FF04); test: Mushroom tyrosinase inhibition assay (L-DOPA oxidation to dopachrome); assay type: biochemical
T1 construct: purchased Sigma Aldrich T3824-250 KU
Protocol: Both were dissolved in 20 mM phosphate buffer solution, pH 6.8. First, 20 µL from a freshly prepared stock solution of mushroom tyrosinase (270 U/mL) and 75 µL of test compounds stock solutions (20 mM PBS, pH 6.8) were mixed and pre-incubated at 37 °C for 15 min. Then, 30 µL of 6 mM L-DOPA was added to the reaction mixture, followed by an incubation of 20 min at 37 °C. During this reaction, L-DOPA is converted to dopachrome (a precursor of melanin), visually detected by the change of color from colorless to orange/brown, resulting in an absorbance increase, recorded spectrophotometrically at 475 nm on a Flex Station 3 Multi-Mode Microplate Reader (Molecular Devices). The inhibition rate was calculated as follows:(1) % Tyrosinase inhibition=(1−A−B/C−D)×100 where A and B represent the final and initial optical densities of the reaction in the presence of the tested compounds, while C and D represent the final and initial optical densities of the reaction in their absence, respectively. […] Experiments were carried out in triplicate and repeated at least 3 times.

[3] = molecular target: T1, mushroom tyrosinase; test: Kinetic analysis of tyrosinase inhibition; assay type: biochemical
Text: GraphPad Prism 8.2.1 was used to fit the experimental data to these four models, all of them compared with each other. Akaike’s Information Criteria (AICc) approach was used to compare the fit of competitive, uncompetitive, and noncompetitive models, while extra sum-of-squares F test was used to compare the mixed model with the remaining three models, as they are considered to be special cases of the mixed model general equation.
Additionally, the mixed model fitting includes an extra parameter, the alpha (α) value, which represents a useful quantitative indicator of the mechanism of inhibition.
Initial velocity of the enzymatic reaction, V0, was determined from the slope of the curve at the initial phase of the reaction, in the presence of increasing concentrations of each compound (25–100 μM) and L-dopa (0.10–1.0 mM) and then plotted as a function of the corresponding substrate concentration, [S]. GraphPad Prism 8.2.1 program was used to fit the obtained data into the Michaelis–Menten model and to determine the kinetic parameters Vmax and KM (maximal reaction velocity and Michaelis–Menten constant, respectively).

[4] = 50 µM compound, substrate L-DOPA, pH 6.8, 37 °C, mean ± SEM, read-out: % mTYR Inhibition at 50 µM

T1 sequence (C7FF04 1-392): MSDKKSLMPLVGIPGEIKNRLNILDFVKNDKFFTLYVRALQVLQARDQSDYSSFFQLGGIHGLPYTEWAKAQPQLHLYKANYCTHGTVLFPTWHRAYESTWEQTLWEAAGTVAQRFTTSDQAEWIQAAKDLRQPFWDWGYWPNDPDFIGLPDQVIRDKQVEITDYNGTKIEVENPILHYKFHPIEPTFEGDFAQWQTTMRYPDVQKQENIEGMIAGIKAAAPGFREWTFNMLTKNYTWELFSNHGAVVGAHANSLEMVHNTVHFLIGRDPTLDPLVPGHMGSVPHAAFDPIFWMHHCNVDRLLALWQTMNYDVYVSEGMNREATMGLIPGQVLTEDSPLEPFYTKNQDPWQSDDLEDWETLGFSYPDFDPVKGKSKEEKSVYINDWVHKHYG

- inhibition at 50 µM [2, 4]: 9.74 ± 3.36%
Structure (SMILES): COc1cc(-c2oc3cc(=O)cc4oc(C)cc(c2O[C@@H]2O[C@H](CO)[C@@H](O)[C@H](O)[C@H]2O)c43)cc(OC)c1O [Compound 8, methylpyranomalvidin-3-O-glucoside]
- fraction in quinoidal base form [1]: 80%

- inhibition at 50 µM [2, 4]: 16.2 ± 1.14%
Structure (SMILES): Cc1cc2c(O[C@@H]3O[C@H](CO)[C@@H](O)[C@H](O)[C@H]3O)c(-c3ccc(O)c(O)c3)oc3cc(=O)cc(o1)c32 [Compound 7, methylpyranocyanidin-3-O-glucoside]
- fraction in quinoidal base form [1]: 80%

- inhibition at 50 µM [2, 4]: 22.1 ± 0.962%
- inhibition at 200 µM ([2]; 200 μM compound, L-DOPA oxidation (Figure 3), read-out: inhibition rate at 200 μM): ~40%
Structure (SMILES): O=C(O)c1cc2c(O[C@@H]3O[C@H](CO)[C@@H](O)[C@H](O)[C@H]3O)c(-c3ccc(O)c(O)c3)oc3cc(=O)cc(o1)c32 [Compound 5, carboxypyranocyanidin-3-O-glucoside]
- fraction under the form A^2− ([1]; ref [20],[21]): ~100%

Structure (SMILES): Oc1cc(O)c2ccc(-c3ccc(O)c(O)c3)[o+]c2c1 [Compound 1, luteolinidin]
- Ki [3]: 15.1 ± 1.18 µM
- Vmax ([3]; L-DOPA, inhibitor 25 μM): 45.8 µM/min
- Vmax ([3]; L-DOPA, inhibitor 50 μM): 45.8 µM/min
- Vmax ([3]; L-DOPA, inhibitor 75 μM): 45.8 µM/min
- Vmax ([3]; L-DOPA, inhibitor 100 μM): 45.8 µM/min
- α ([3]; alpha value from fitting of mixed model equation): 21.00
- Inhibition Type ([3]; diphenolase activity, L-DOPA, model comparison in GraphPad Prism): Competitive
- IC50 [2]: 39.2 ± 2.71 µM
- inhibition at 50 µM ([2]; pH 6.8, read-out: % mTYR Inhibition at 50 µM): 58.5 ± 2.08%
